Where a name gives a salt, the structure may show the parent alone.

For assay [1], the target named is human recombinant FKBP-12 (Homo sapiens, UniProt P62942). The assay is described as follows: coupled colorimetric PPIase (rotamase) assay, FKBP-12. Type of assay: biochemical. The settings on record: succinyl-AFPF-pNA substrate, chymotrypsin-coupled, 10° C., pH 8.0; read-out: IC50 for inhibition of the FKBP-12 enzyme. The source says:
The affinity of the compounds of the formula (I) for FKBP-12 can be determined in vitro in a coupled calorimetric PPlase assay using similar procedures to published methods (e.g. see Kofron, J. L., et al., Biochemistry, 1991,30, 6127-6134, Zarnt, T., et al., Biochem. J. 1995, 305, 159-164, Holt, D. A., et al., J. Am. Chem. Soc., 1993, 115, 9925-9938). In these methods, the cis-trans isomerisation of a hydrophobic amino acid-proline bond in a tetrapeptide substrate (e.g. the phenylalanine-proline bond in N-succinyl-ala-phe-pro-phe-p-nitroanilide [succinyl-AFPF-pNA]) can be determined by monitoring cleavage of pNA from the transPro-containing peptide by an excess of chymotrypsin.
The IC50 (the concentration of the compound of the formula (I) producing 50% inhibition) values were determined using the following assay methodology. Assay buffer (2.175 ml) (50 mM 4-(2-hydroxyethyl)-1-piperazineethanesulphonic acid (HEPES), 100 mM NaCl, 1 mM dithiothreitol (DTT), pH 8.0) is equilibrated to 10° C. in a cuvette. 12.5 μl of a solution of the present compound in DMSO, 250 μl of a 60 mg/ml solution of α-chymotrypsin in 1 mM aqueous hydrochloric acid and then 50 μl of a solution of human recombinant FKBP-12 (4.5 μM) in assay buffer are added and mixed. The reaction is initiated by addition of 12.5 μl of a solution of 20 mM succinyl-AFPF-pNA in DMSO. The absorbance at 390 nm is monitored for one minute collecting data every 0.25 second. Data are fitted with a first order rate equation with offset and the rate constant obtained corrected for the rate of uncatalysed isomerisation of the substrate. The rate constant determined at different inhibitor concentrations (10 nM to 100 μM) is expressed as % inhibition of the control rate constant. The IC50 is estimated using a non-linear least squares curve fitting routine of the sigmoidal dose response data.

Assay [2] concerns the target T1, human recombinant FKBP52 (Homo sapiens, UniProt Q02790).
T1 sequence (Q02790 1-459): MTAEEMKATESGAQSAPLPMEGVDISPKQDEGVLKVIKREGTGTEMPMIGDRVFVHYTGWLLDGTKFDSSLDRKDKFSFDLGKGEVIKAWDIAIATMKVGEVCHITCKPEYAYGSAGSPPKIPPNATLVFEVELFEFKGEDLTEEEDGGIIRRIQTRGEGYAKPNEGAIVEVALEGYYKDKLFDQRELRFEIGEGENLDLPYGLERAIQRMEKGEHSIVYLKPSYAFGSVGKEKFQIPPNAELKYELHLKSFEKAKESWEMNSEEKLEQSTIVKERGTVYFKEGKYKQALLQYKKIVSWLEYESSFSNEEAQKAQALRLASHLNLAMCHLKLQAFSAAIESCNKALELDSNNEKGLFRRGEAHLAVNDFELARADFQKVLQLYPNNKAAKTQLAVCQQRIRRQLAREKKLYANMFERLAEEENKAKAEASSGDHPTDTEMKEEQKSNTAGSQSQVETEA
Briefly: PPIase (rotamase) assay, FKBP-52. It is filed as biochemical. The settings on record: read-out: IC50 for inhibition of the FKBP-52 enzyme. On the procedure: Assay buffer (2.175 ml) (50 mM HEPES, 100 mM NaCl, 1 mM DTT, pH 8.0) is equilibrated to 10° C. in a cuvette. 12.5 μl of a solution of the present compound in DMSO, 250 μl of a 60 mg/ml solution of α-chymotrypsin in 1 mM aqueous hydrochloric acid and then 50 μL of a solution of human recombinant FKBP-12 (1.5 μM) in assay buffer are added and mixed. The reaction is initiated by adding 1 2.5 μl of a solution of anhydrous succinyl-ALPF-pNA (100 μM final concentration) in a 400 mM solution of LiCl in trifluoroethanol. The absorbance at 390 nm is monitored for 3 minutes collecting data every 0.5 second. Data are fitted with a first order rate equation with offset and the initial velocity (v) is calculated from the concentration of cis (re leu-pro bond)-succinyl-ALPF-pNA at to and the first order rate constant at different inhibitor concentrations (I). Data in the form vinh/vcontrol v. [I] are fitted with an equation for reversible tight binding inhibition to generate values for Ki,app (see Morrison, J. F., et al, Comments Mol. Cell Biophys., 1985, 2, 347-368). This analysis is used when the Ki,app approaches the concentration of FKBP-12 in the assay (30 nM). […] The same methodology is used to generate Ki,app for FKBP52 with the following modifications: Forty microlitres human recombinant FKBP52 (5.2 μM) is substituted for FKBP12 and 2.185 ml assay buffer are used in the assay. […]

Chain of human recombinant FKBP-12 (P62942 whole entry): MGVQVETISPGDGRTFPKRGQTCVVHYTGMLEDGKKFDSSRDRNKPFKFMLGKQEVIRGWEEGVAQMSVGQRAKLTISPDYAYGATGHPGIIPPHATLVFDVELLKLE

One may read the IC50 as the point on the concentration scale where inhibition reaches its midpoint. As to `O=C(N[C@H]1CCN(Cc2ccccc2)C1)[C@@H]1CCCCN1c1nc2ccccc2o1` [Example 2, (2S)-1-(1,3-Benzoxazol-2-yl)-N^2-[(3S)-1-benzylpyrrolidin-3-yl]-2-piperidinecarboxamide], the IC50 in assay [1] is less than 1.2 µM; in assay [2], 2.79 µM.

For `O=C(N[C@H]1CCN(Cc2ccccn2)C1)[C@@H]1CCCCN1c1nc2ccccc2o1` [Example 6, (2S)-1-(1,3-Benzoxazol-2-yl)-N^2-[(3S)-1-(2-pyridinylmethyl)pyrrolidin-3-yl]-2-piperidinecarboxamide], in assay [1], the IC50 is less than 1.2 µM.

With `O=C(N[C@H]1CCN(Cc2cccnc2)C1)[C@@H]1CCCCN1c1nc2ccccc2o1` [Example 7, (2S)-1-(1,3-Benzoxazol-2-yl)-N^2-[(3S)-1-(3-pyridinylmethyl)pyrrolidin-3-yl]-2-piperidinecarboxamide], the IC50 in assay [1] was less than 1.2 µM.

Turning to `O=C(N[C@H]1CCN(Cc2ccncc2)C1)[C@@H]1CCCCN1c1nc2ccccc2o1` [Example 8, (2S)-1-(1,3-Benzoxazol-2-yl)-N^2-[(3S)-1-(4-pyridinylmethyl)pyrrolidin-3-yl]-2-piperidinecarboxamide], the IC50 in assay [1] was less than 1.2 µM.

In the case of `NC(=O)c1cccc(CN2CC[C@H](NC(=O)[C@@H]3CCCCN3c3nc4ccccc4o3)C2)c1` [Example 13a, (2S)-N^2-1-{(3S)-1-[3-(Aminocarbonyl)phenylmethyl]pyrrolidin-3-yl}-1-(1,3-benzoxazol-2-yl)-2-piperidinecarboxamide], the IC50 in assay [1] is less than 1.2 µM.

Regarding `O=C(N[C@H]1CCN(Cc2ccccc2)C1)[C@@H]1CCCCN1c1nc2ccc(Br)cc2o1` [Example 15, (2S)-N^2-[(3S)-1-Benzylpyrrolidin-3-yl]-1-(6-bromo-1,3-benzoxazol-2-yl)-2-piperidinecarboxamide], the concentration for half-maximal inhibition (IC50) in assay [1] was less than 1.2 µM.

In the case of `O=C(N[C@H]1CCN(Cc2cc3ccccc3nc2Cl)C1)[C@@H]1CCCCN1c1nc2ccccc2o1` [Example 16], the IC50 in assay [1] is less than 1.2 µM.

As to `O=C(N[C@H]1CCN(Cc2ccnc3ccccc23)C1)[C@@H]1CCCCN1c1nc2ccccc2o1` [Example 17], in assay [1], the IC50 was less than 1.2 µM.

As to `O=C(N[C@H]1CCN(Cc2ccc3ccccc3n2)C1)[C@@H]1CCCCN1c1nc2ccccc2o1` [Example 18], the half-maximal inhibitory concentration (IC50) in assay [1] was less than 1.2 µM.

Consider `O=C(N[C@H]1CCN(Cc2cnc3ccccc3c2)C1)[C@@H]1CCCCN1c1nc2ccccc2o1` [Example 19], for which, in assay [1], the IC50 is less than 1.2 µM.

For `CC(c1ccnc2ccccc12)N1CC[C@H](NC(=O)[C@@H]2CCCCN2c2nc3ccccc3o2)C1` (stereo partly shown) [Example 20], the IC50 in assay [1] is less than 1.2 µM.

With `O=C(N[C@H]1CCN(C(=O)c2ccc3ccccc3n2)C1)[C@@H]1CCCCN1c1nc2ccccc2o1` [Example 21, (2S)-N^2-{(3S)-1-[Quinolin-2-ylcarbonyl]pyrrolidin-3-yl}-1-(1,3-benzoxazol-2-yl)-2-piperidinecarboxamide], the half-inhibitory concentration (IC50) in assay [1] is less than 1.2 µM.

Turning to `O=C(N[C@H]1CCN(C(=O)c2cc(-c3ccccc3)nc3ccccc23)C1)[C@@H]1CCCCN1c1nc2ccccc2o1` [Example 22, (2S)-N^2-{(3S)-1-[2-Phenylquinolin-4-ylcarbonyl]pyrrolidin-3-yl}-1-(1,3-benzoxazol-2-yl)-2-piperidinecarboxamide], in assay [1], the half-maximal inhibitory concentration (IC50) is less than 1.2 µM.

In the case of `COc1cc(C(=O)N2CC[C@H](NC(=O)[C@@H]3CCCCN3c3nc4ccccc4o3)C2)nc2ccccc12` [Example 23, (2S)-N^2-{(3S)-1-[4-Methoxyquinolin-2-ylcarbonyl]pyrrolidin-3-yl}-1-(1,3-benzoxazol-2-yl)-2-piperidinecarboxamide], the IC50 in assay [1] is less than 1.2 µM.

Consider `COc1ccc2nc(-c3ccccc3)cc(C(=O)N3CC[C@H](NC(=O)[C@@H]4CCCCN4c4nc5ccccc5o4)C3)c2c1` [Example 24, (2S)-N^2-{(3S)-1-[6-Methoxy-2-phenylquinolin-4-ylcarbonyl]pyrrolidin-3-yl}-1-(1,3-benzoxazol-2-yl)-2-piperidinecarboxamide], for which, in assay [1], the 50% inhibitory concentration (IC50) was less than 1.2 µM.

Take `O=C(N[C@H]1CCN(C(=O)c2cc(N3CCCCC3)nc3ccccc23)C1)[C@@H]1CCCCN1c1nc2ccccc2o1` [Example 25, (2S)-N^2-{(3S)-1-[2-Piperidinoquinolin-4-ylcarbonyl]pyrrolidin-3-yl}-1-(1,3-benzoxazol-2-yl)-2-piperidinecarboxamide]: the half-inhibitory concentration (IC50) in assay [1] was less than 1.2 µM.

As to `O=C(N[C@H]1CCN(C(=O)c2cc(Cl)nc3ccccc23)C1)[C@@H]1CCCCN1c1nc2ccccc2o1` [Example 26, (2S)-N^2-{(3S)-1-[2-Chloroquinolin-4-ylcarbonyl]pyrrolidin-3-yl}-1-(1,3-benzoxazol-2-yl)-2-piperidinecarboxamide], in assay [1], the half-inhibitory concentration (IC50) is less than 1.2 µM.

For the compound `O=C(N[C@H]1CCN(C(=O)c2ccc3cn[nH]c3c2)C1)[C@@H]1CCCCN1c1nc2ccccc2o1` [Example 27, (2S)-N^2-{(3S)-1-[1H-benzpyrazol-6-ylcarbonyl]pyrrolidin-3-yl}-1-(1,3-benzoxazol-2-yl)-2-piperidinecarboxamide], the half-maximal inhibitory concentration (IC50) in assay [1] was less than 1.2 µM.

Take `O=C(NC1CCCN(Cc2ccccc2)C1)[C@@H]1CCCCN1c1nc2ccccc2o1` (stereo partly drawn) [Example 30, (2S)-1-(1,3-Benzoxazol-2-yl)-N^2-(1-benzyl-3-piperidinyl)-2-piperidinecarboxamide]: the half-maximal inhibitory concentration (IC50) in assay [1] was less than 1.2 µM.

Take `O=C(N[C@H]1CN[C@H](COCc2ccccc2)C1)[C@@H]1CCCCN1c1nc2ccccc2o1` [Example 35, (2S)-1-(1,3-Benzoxazol-2-yl)-N^2-(3R,5S)-5-[(benzyloxy)methyl]pyrrolidin-3-yl-2-piperidinecarboxamide hydrochloride]: the IC50 in assay [1] was less than 1.2 µM.

As for `O=C(N[C@H]1CCN(Cc2ccccc2)C1)C1CCCCN1c1nc2ccccc2[nH]1` (stereo partly shown) [Example 41], in assay [1], the 50% inhibitory concentration (IC50) is less than 1.2 µM.

The values are drawn from patent publication US6372736B1, “Heterocyclic compounds as inhibitors of rotamase enzymes” (Pfizer INC, priority 1999, dated 2002).
